Structures are written as SMILES.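 How tested: cells in 96-well plates exposed to compound for 48 hours at five concentrations. At the TGI there is no net growth.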

Some test systems named below: DU-145 prostate; SK-OV-3 ovarian; HCT-116 colon; 786-0 renal; UO-31 renal; TK-10 renal; HCC-2998 colon; MCF7 breast; M14 melanoma; SN12C renal; NCI/ADR-RES ovarian.
Holding throughout (assay): growth of human tumour cells (NCI), 48 h

In the case of `CC(=O)[C@@H]1[C@@H](OC(=O)CCC(C)COC2OC(CO)C(O)C(O)C2O)C[C@H]2[C@@H]3CC=C4C[C@@H](OC5OC(CO)C(OC6OC(C)C(O)C(O)C6O)C(O)C5OC5OC(C)C(O)C(O)C5O)CC[C@]4(C)[C@H]3CC[C@]12C` (stereo not given in full), the TGI with DU-145 prostate, with SK-OV-3 ovarian, in the assay on HCT-116 colon, in the assay on 786-0 renal, in the assay with UO-31 renal and in the assay on TK-10 renal was over 100 µM each time. In addition, the TGI in the assay with HCC-2998 colon, with MCF7 breast, with M14 melanoma and with SN12C renal was over 100 µM throughout.
For `COc1ccc(C2=CC(c3ccccc3)n3nnnc3N2)cc1` (stereo not given), the TGI in the assay on DU-145 prostate, with SK-OV-3 ovarian, in the assay with HCT-116 colon, with NCI/ADR-RES ovarian, in the assay with 786-0 renal and in the assay on UO-31 renal was over 100 µM in each case. For the same compound, the TGI in the assay with MCF7 breast, in the assay on M14 melanoma and in the assay on SN12C renal was over 100 µM throughout.
Turning to `CCC(C)n1c(C)nc2c1C(=O)c1ccccc1C2=O` (stereo not given), the TGI in the assay on SK-OV-3 ovarian, in the assay with HCT-116 colon, with 786-0 renal, in the assay with UO-31 renal, in the assay on TK-10 renal and with HCC-2998 colon was over 100 µM throughout. The TGI in the assay on M14 melanoma and in the assay on SN12C renal was over 100 µM throughout.
For the compound `CC(=O)Nc1ccc(Nc2cc(=O)[nH]c(=O)[nH]2)cc1`, the TGI with DU-145 prostate, in the assay on HCT-116 colon, in the assay with NCI/ADR-RES ovarian, in the assay with 786-0 renal, with UO-31 renal and in the assay on TK-10 renal was over 100 µM in each case. The TGI in the assay on HCC-2998 colon, in the assay on MCF7 breast, with M14 melanoma and with SN12C renal was over 100 µM throughout.
Take `Nc1sc2c(c1C(=O)c1ccc(Cl)c(Cl)c1)CCCC2`: the TGI in the assay on DU-145 prostate, in the assay with SK-OV-3 ovarian, in the assay on HCT-116 colon, in the assay with 786-0 renal, with UO-31 renal and with TK-10 renal was over 100 µM each time. In addition, the TGI in the assay on HCC-2998 colon is 49.3 µM; with MCF7 breast, 64.8 µM; in the assay with M14 melanoma it was over 100 µM; in the assay on SN12C renal it was over 100 µM.
On to `CCc1ccc(N=Cc2cc(OC)c(OC)c(OC)c2)cc1`, for which the TGI in the assay with SK-OV-3 ovarian, in the assay with HCT-116 colon, with 786-0 renal, in the assay with UO-31 renal, in the assay on TK-10 renal and in the assay with M14 melanoma was over 100 µM each time. The compound also returned a TGI in the assay on SN12C renal of over 100 µM.
Consider `CC(C)(C)c1cc(CC2C(=O)c3ccccc3C2=O)cc(C(C)(C)C)c1O`, for which the TGI was 14.7 µM in the assay with DU-145 prostate; 7.71 µM in the assay on SK-OV-3 ovarian; 14.1 µM with HCT-116 colon; over 100 µM in the assay on NCI/ADR-RES ovarian; 21.1 µM in the assay on 786-0 renal; 10.5 µM in the assay with UO-31 renal. Further, the TGI was 23.7 µM with TK-10 renal, over 100 µM in the assay on MCF7 breast, 11.6 µM in the assay on M14 melanoma and 35.9 µM in the assay with SN12C renal.
Turning to `Cc1ccccc1C(=O)c1c(O)c2c(c(O)c1Br)CCCC2`, the TGI came out at 43.6 µM in the assay on SK-OV-3 ovarian; 30.2 µM in the assay on HCT-116 colon; 27.9 µM in the assay on 786-0 renal; 31.7 µM with UO-31 renal; 31.7 µM in the assay with TK-10 renal; 34 µM in the assay with HCC-2998 colon. Further, the TGI was found to be 29.1 µM in the assay on M14 melanoma and 33.3 µM in the assay with SN12C renal.
Take `COC(=O)c1c2c(cc3c1CC1(Cc4cc5c(c(C=O)c4C1)CCCC5)C3)CCCC2` (stereo not given): the TGI is over 100 µM in the assay with SK-OV-3 ovarian; 47.3 µM in the assay on HCT-116 colon; over 100 µM in the assay on NCI/ADR-RES ovarian; over 100 µM with 786-0 renal; 0.268 µM in the assay on UO-31 renal; over 100 µM in the assay on TK-10 renal. The TGI with HCC-2998 colon was over 100 µM; in the assay on MCF7 breast, 87.2 µM; with M14 melanoma, over 100 µM; with SN12C renal it was over 100 µM.
With `C=C(CN(C)C)C(=O)c1ccccc1C`, the TGI in the assay with DU-145 prostate is over 100 µM; with SK-OV-3 ovarian it was over 100 µM; in the assay with HCT-116 colon, over 57.1 µM; with 786-0 renal, 35.8 µM; in the assay with UO-31 renal it was over 69.2 µM; with TK-10 renal, over 100 µM. Further, the TGI was over 100 µM in the assay on HCC-2998 colon, 33.8 µM in the assay on M14 melanoma and over 78.1 µM in the assay on SN12C renal.
Regarding `O=c1cc(NCCCCCO)[nH]c(=O)[nH]1`, the TGI with SK-OV-3 ovarian, in the assay with HCT-116 colon, in the assay on NCI/ADR-RES ovarian, in the assay with 786-0 renal, in the assay with UO-31 renal and in the assay with TK-10 renal was over 100 µM in each case. Also, the TGI in the assay with HCC-2998 colon, with MCF7 breast, in the assay with M14 melanoma and with SN12C renal was over 100 µM each time.
In the case of `CC(=O)OC12/C(=N/O)CCCCCC1c1ccccc12` (stereo not given), the TGI in the assay with SK-OV-3 ovarian, with HCT-116 colon, with 786-0 renal, in the assay with UO-31 renal, in the assay with TK-10 renal and in the assay on SN12C renal was over 100 µM throughout.
On to `Cc1ccc(-c2nc(C)c(C(=O)Nc3ccc(Cl)cc3)s2)cc1`, for which the TGI with DU-145 prostate was over 100 µM; in the assay with SK-OV-3 ovarian it was 45.2 µM; in the assay with HCT-116 colon it was 41.2 µM; with NCI/ADR-RES ovarian, over 100 µM; in the assay with 786-0 renal, 29.3 µM; in the assay on UO-31 renal, 49.3 µM. Moreover, the TGI is 38.9 µM in the assay on TK-10 renal, over 100 µM with MCF7 breast, over 100 µM in the assay on M14 melanoma and over 100 µM with SN12C renal.
`CN(C)CCOc1cccc2c1C(=O)c1ccccc1C2=O`: the TGI was 81.2 µM with SK-OV-3 ovarian; 17.2 µM with HCT-116 colon; 52 µM in the assay on 786-0 renal; 45.2 µM in the assay with UO-31 renal; 66.6 µM in the assay on TK-10 renal; 30.3 µM with HCC-2998 colon. Also, the TGI amounted to 26.3 µM with M14 melanoma and 37.3 µM in the assay on SN12C renal.
